The test system of data set [1] is HUVEC cells. The experiment in a line: Tube formation (angiogenesis) on Matrigel. Type of data set: cell-based. The settings on record: 12 h, even at 1 μM, compared to control. The protocol: To determine the effect of NO and HNO releasing aspirin on angiogenesis, HUVEC cells were treated with the compounds and tube formation was studied after 12 h. Matrigel (50 μL) was added to each well in a 96 well plate and incubated for 2 h at 37° C. Cell suspension treated with different concentrations of IPA/NO-aspirin, DEA/NO-aspirin and controls was added to each well at a concentration of 20,000 cells per well. After 12 hours, tube formation was measured using a microscope.

Data set [2] deals with HUVECs. The experiment in a line: MTT assay, normal endothelial cell line HUVECs. The data set is classed as cell-based. (In general: Tetrazolium assays rely on reduction of a dye to a coloured formazan, in cell work by metabolically active cells.)
The test system of data set [3] is MB-231 breast cancer cell lines. The experiment in a line: DAF assay of cell membrane penetration, MB-231. As to conditions: MB-231 cell line.
Method: Intracellular NO/HNO release from the derivatized NSAIDs was determined using 4-amino-5-methylamino-2′,7′-difluorofluoroescein diacetate (DAF-FM diacetate) as in Example 9.
In data set [4] the test system is p53. The experiment in a line: Phosphorylation of p53 in MB-231 cells. Type of data set: cell-based, human. The settings on record: 50 μM IPA/NO-aspirin, 75 μM DEA/NO-aspirin. The protocol:
MB-231 cells were plated at a concentration on 1E6 and grown for 24 h. Then the cells were serum starved overnight followed by treatment with 50 μM and 75 μM, respectively, of IPA/NO-aspirin and DEA/NO-aspirin for 3, 6, 12 h. The cells were harvested and lysed with lysis buffer (cell signaling). Cell lysate was centrifuged at 13,000 rpm for 20 min and the supernatant was transferred to fresh tube. Protein ([…]) of protein was loaded in each lane on a 15% tris-glycine gel and electrophoresis was completed at 120V.

The target in data set [5] is T1, glyceraldehyde-3-phosphate dehydrogenase (GAPDH) (Homo sapiens, UniProt P04406). The experiment in a line: GAPDH activity, MCF-7. Also noted: endogenous in cells; host or cells: MDA-MB-231, MDA-MB-468, MCF-7, MCF-10A. The settings on record: MCF-7, 100 μM. Type of data set: cell-based. How it is done:
(§1) Cells were plated at a concentration of 30,000 cells per well and grown overnight. Cells were treated with 100 μM IPA/NO-aspirin and DEA/NO-aspirin for 1, 3, and 6 h after which 200 μL of KDalert lysis buffer was added to each well. The plate was incubated at 4° C. for 20 min to lyse the cells. 10 μL of cell lysate was transferred to a clean 96 well plate and 90 μL of KDalert mastermix was added to each well and the fluorescence was measured at excitation of 540 nm and emission of 570 nm.

In data set [6] the target is T1, glyceraldehyde-3-phosphate dehydrogenase (GAPDH). The experiment in a line: GAPDH activity, MDA-MB-468. Type of data set: cell-based. The arrangement: endogenous in cells; host or cells: MDA-MB-468. The settings on record: MDA-MB-468, 100 μM. How it is done: as §1
The subject of data set [7] is caspase-3. The experiment in a line: Caspase-3 fluorescence assay, MDA-MB-231. As to conditions: 12 h. Type of data set: cell-based, human. How it is done: The caspase-3 activity in the presence of IPA/NO-ASA and DEA/NO-ASA was measured using caspase-3 fluorescence assay kit (Cat No. 10009135, Cayman Chemical). Cells were plated at a concentration of 50,000 cells per well in a 96 well plate and grown overnight. Then the cells were treated with different concentrations of the compounds and controls for 12 h. After 12 h, the plate was centrifuged at 800 g and the media was removed by aspiration. 100 μL of lysis buffer was added to each well and the plate was incubated for […] at room temperature. 100 μL of a caspase-3 substrate solution was added to each well and incubated for 30 min after which the fluorescence was read at excitation of 485 nm and emission of 535 nm.

Data set [8] has as its system MDA-MB-231 cell line. The experiment in a line: Comet assay for DNA damage, MDA-MB-231. Type of data set: cell-based, human. As to conditions: 50 μM IPA/NO-aspirin, 75 μM DEA/NO-aspirin. How it is done: The pathological aspect of high ROS is the ability to cause oxidative damage to DNA. To further investigate this possibility, the effect of NONO-aspirin was studied on DNA damage using a comet assay in the MDA-MB-231 cell line.
Cells were plated at a concentration of 50,000 cells per well in a 12 well plate and grown overnight. Cells were treated with 50 μM IPA/NO-aspirin and 75 μM DEA/NO-aspirin for 12 h and the assay was conducted using a comet assay kit (Cat No. 4250-050-K, Trevigen, Md.) as described in the manufacturer's instructions.

Data set [9] deals with T1, glyceraldehyde-3-phosphate dehydrogenase (GAPDH). The experiment in a line: GAPDH activity in A549 cells (KDalert). The arrangement: GAPDH activity in A549 cells at different time points; endogenous in cells; host or cells: A549. Type of data set: cell-based. The protocol: In an effort to decipher the mechanism of action of compounds 4 and 8, their effect on glyceraldehyde-3-phosphate dehydrogenase (GAPDH) activity was measured. GAPDH is a glycolytic enzyme which reversibly catalyzes the oxidation of D-glyceraldehyde-3-phosphate to 1,3-diphosphoglycerate. This method utilizes the conversion of NAD^+ to NADH by GAPDH in the presence of glyceraldehydes-3-phosphate and phosphate, which can be measured at an excitation of 560 nm and emission of 590 nm.
Cells were plated at a concentration of 30,000 cells per well and grown overnight. Then they were treated with 100 μM IPA/NO-aspirin and DEA/NO-aspirin for 1, 3, and 6 h followed by which 200 μL of KDalert lysis buffer was added to each well. The plate was incubated at 4° C. for 20 min to lyse the cells. Then 10 μL of cell lysate was transferred to a clean 96 well plate and 90 μL of KDalert mastermix was added to each well and fluorescence was measured at excitation of […]. […] It is also a critical glycolytic enzyme that can play an important role in cancer therapy as solid tumors are known to utilize glycolytic pathways even during normoxia to meet energy requirements (Gatenby et al., Nat. Rev. Cancer, 4(11):891099 (2004)). Thus, inhibition of GAPDH can diminish the […] of tumor cells.

Data set [10] shares this target. The experiment in a line: GAPDH activity, MCF-10A. The data set is classed as cell-based. As to conditions: MCF-10A cell line. The arrangement: endogenous in cells. The protocol:
as §1

Data set [11] relates to A549 cells. The experiment in a line: MTT proliferation assay, A549 cells. The data set is classed as cell-based. As to conditions: 48 h. The protocol: The effect of compounds 4 and 8 was studied on proliferation of A549 cells by 3-(4,5-Dimethylthiazol-2-yl)-2,5-diphenyltetrazolium bromide (MTT) assay. Cells were plated at a concentration of 10,000 cells per well in a 96 well plate and grown overnight. Then the cells were treated with different concentration of the compounds and controls for 48 h. After 48 h, a solution of 2 mg/ml MTT was added to each well and incubated for 1 hr. The media was then removed from each well and 100 μL DMSO was added to each well and the absorbance was recorded at 550 nm.

Where only a bound is given, the exact number is not on record here.

T1 sequence (P04406 whole entry): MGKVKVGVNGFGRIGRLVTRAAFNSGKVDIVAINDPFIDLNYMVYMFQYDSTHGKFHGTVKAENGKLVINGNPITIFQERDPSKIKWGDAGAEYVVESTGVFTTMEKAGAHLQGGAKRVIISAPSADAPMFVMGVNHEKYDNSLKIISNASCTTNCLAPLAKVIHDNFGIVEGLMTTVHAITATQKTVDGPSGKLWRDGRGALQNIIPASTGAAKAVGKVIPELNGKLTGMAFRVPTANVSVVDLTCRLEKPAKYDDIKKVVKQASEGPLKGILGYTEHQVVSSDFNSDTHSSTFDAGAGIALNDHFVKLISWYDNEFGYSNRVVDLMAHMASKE

For `CCN(CC)[N+]([O-])=NOCOC(=O)c1ccccc1OC(C)=O` [DEA/NO-aspirin, O^2-(Acetylsalicyloyloxymethyl)-1-(N,N-Diethylamino)-diazen-1-ium-1,2-diolate], the “angiogenesis (tube formation)” value in data set [1] was “reduced angiogenesis”. Besides, in [2], the “cell death in MTT assay” value is on record as “No significant cell death”. Besides, the cell membrane penetration result in [3] is listed as “penetrated cell membranes”. Also, the “time point of activation of p53 phosphorylation” value in data set [4] came to 1 h. For the same molecule, the “GAPDH Activity” value in [5] (1 h) amounted to 0.080 U/mL; in [5] (3 h), 0.110 U/mL; in data set [5] (6 h) it was 0.130 U/mL; in data set [6] (1 h), 0.060 U/mL; in data set [6] (3 h) it was 0.065 U/mL; in data set [6] (6 h), 0.050 U/mL. Besides, the “Caspase-3 Activity” value is listed as 0.25 U/mL in [7] (MDA-MB-231, 25 μM); 0.24 U/mL in data set [7] (MDA-MB-231, 50 μM); 0.31 U/mL in [7] (MDA-MB-231, 100 μM). Also, the “DNA damage (comet assay)” value in data set [8] was “comparable to the DMSO treated control”.
In the case of `CC(=O)Oc1ccccc1C(=O)OCON=[N+]([O-])NC(C)C` [IPA/NO-aspirin, O^2-(Acetylsalicyloyloxymethyl)-1-(N-isopropylamino)-diazen-1-ium-1,2-diolate], the “angiogenesis (tube formation)” value in data set [1] is given as “reduced angiogenesis”. The “cell death in MTT assay” value in [2] was “No significant cell death”. For the same molecule, the GAPDH Activity entry in [9] is “inhibition of GAPDH activity at micro-molar concentrations”; in [5] (1 h), <0.010 U/mL; in [5] (3 h), <0.010 U/mL; in data set [5] (6 h) it was <0.010 U/mL; in [6] (1 h), <0.010 U/mL; in data set [6] (3 h), <0.010 U/mL. In addition, the “GAPDH Activity” value in [6] (6 h) is given as <0.010 U/mL; in [10] it was “did not inhibit GAPDH activity”. For the same molecule, the cell membrane penetration entry in data set [3] is “penetrated cell membranes”. The “time point of activation of p53 phosphorylation” value in [4] came out at 10 h. The “Caspase-3 Activity” value is given as 0.40 U/mL in data set [7] (MDA-MB-231, 25 μM); 0.48 U/mL in data set [7] (MDA-MB-231, 50 μM); 0.55 U/mL in [7] (MDA-MB-231, 100 μM). In addition, the “toxicity in MTT assay” value in [11] is “slightly higher toxicity than compound 8”. For the same molecule, in data set [8], the “DNA damage (comet assay)” value is reported as “significant DNA damage”.

For the origin of these results see patent publication US8633177B2, “Nitroxyl (HNO) releasing compounds and uses thereof in treating diseases” (The United States of America, as represented by the …, priority 2010, dated 2014).
